Source: patent US4454314A, “Antibacterial mycaminosyl tylonolide and related macrolide derivatives” (Pfizer Inc., priority 1982, dated 1984)
≈ marks a conversion by molar mass, not a printed value. Read-outs that look alike come from different tables or passages of the source.

What was measured:
E. coli 470 = assay: In vitro antibacterial activity (MIC), BHI agar; type: cell-based; settings: read-out: Minimum Inhibitory Concentration (MIC)
Experimental: (§1) The procedure which is followed is the one recommended by the International Collaborative Study on Antibiotic Sensitivity Testing [Ericcson and Sherris, Acta. Pathologica et Microbiologia Scandinav, Supp. 217, Sections A and B: 64-68 (1971)], and employs brain heart infusion (BHI) agar and the inocula replicating device. Overnight growth tubes are diluted 100 fold for use as the standard inoculum (20,000-10,000 cells in approximately 0.002 ml are placed on the agar surface; 20 ml of BHI agar/dish). Twelve 2 fold dilutions of the test compound are employed, with initial concentration of the test drug being 200 mcg/ml. Single colonies are disregarded when reading plates after 18 hours at 37° C. The susceptibility (MIC) of the test organism is accepted as the lowest concentration of compound capable of producing complete inhibition of growth as judged by the naked eye. A comparison of the in vitro activity of various compounds of the formulae (I) and (II) with tylonolide is recorded in Table 1.

Neiss. sic. = assay: In vitro antibacterial activity (MIC), BHI agar; type: cell-based; settings: 18 hours at 37° C., read-out: Minimum Inhibitory Concentration (MIC)
Experimental: as §1

Past. mult. 1 = assay: In vitro antibacterial activity (MIC), BHI agar; type: cell-based; settings: 18 hours at 37° C., read-out: Minimum Inhibitory Concentration (MIC)
Experimental: as §1

Staph. aur. 400 = assay: In vitro antibacterial activity (MIC), BHI agar; type: cell-based; settings: 18 hours at 37° C., read-out: Minimum Inhibitory Concentration (MIC)
Experimental: as §1

Staph. aur. 52 = assay: In vitro antibacterial activity (MIC), BHI agar; type: cell-based; settings: 18 hours at 37° C., read-out: Minimum Inhibitory Concentration (MIC)
Experimental: as §1

Staph. aur. 5 = assay: In vitro antibacterial activity (MIC), BHI agar; type: cell-based; settings: 18 hours at 37° C., read-out: Minimum Inhibitory Concentration (MIC)
Experimental: as §1

Staph. epi. 111 = assay: In vitro antibacterial activity (MIC), BHI agar; type: cell-based; settings: 18 hours at 37° C., read-out: Minimum Inhibitory Concentration (MIC)
Experimental: as §1

Staph. epi. 126 = assay: In vitro antibacterial activity (MIC), BHI agar; type: cell-based; settings: 18 hours at 37° C., read-out: Minimum Inhibitory Concentration (MIC)
Experimental: as §1

Staph. epi. 87 = assay: In vitro antibacterial activity (MIC), BHI agar; type: cell-based; settings: read-out: Minimum Inhibitory Concentration (MIC)
Experimental: as §1

Strep. faec. 6 = assay: In vitro antibacterial activity (MIC), BHI agar; type: cell-based; settings: 18 hours at 37° C., read-out: Minimum Inhibitory Concentration (MIC)
Experimental: as §1

Strep. pneum. 12 = assay: In vitro antibacterial activity (MIC), BHI agar; type: cell-based; settings: 18 hours at 37° C., read-out: Minimum Inhibitory Concentration (MIC)
Experimental: as §1

Strep. pyog. 203 = assay: In vitro antibacterial activity (MIC), BHI agar; type: cell-based; settings: 18 hours at 37° C., read-out: Minimum Inhibitory Concentration (MIC)
Experimental: as §1

[1] = test system: infections by sensitive bacteria; assay: In vivo activity against acute experimental infections in mice (PD50); settings: Mus musculus, sc; subcutaneous; mice infected intraperitoneally, at least one LD100; organism not given; read-out: PD50 (dose which protects 50% of the animals from infection)
Source text: In determining such activity, acute experimental infections are produced in mice by the intraperitoneal inoculation of the mice with a standardized culture of the test organism suspended in 5 percent hog gastric mucin. Infection severity is standarized so that the mice receive at least one LD100 dose of the organism (LD100 : the minimum inoculum of organism required to consistently kill 100 percent of the infected, nontreated control mice). The test compound is then subcutaneously or orally administered at various dosage levels to groups of infected mice. At the end of the test, the activity of the mixture is assessed by counting the number of survivors among treated animals at a given dose. Activity is expressed as the percentage of animals which survive at a given dose, or calculated as a PD50 (dose which protects 50% of the animals from infection).

Bac. sub. 1 = assay: In vitro antibacterial activity (MIC), BHI agar; type: cell-based; settings: 18 hours at 37° C., read-out: Minimum Inhibitory Concentration (MIC)
Experimental: as §1

[2] = Escherichia coli, E. coli 470, BHI agar, 18 hours at 37° C.

Compound | MIC (E. coli 470; Escherichia coli, 470, 18 h) | MIC (Neiss. sic.) | MIC (Past. mult. 1) | MIC (Staph. aur. 400) | MIC (Staph. aur. 52) | MIC (Staph. aur. 5) | MIC (Staph. epi. 111) | MIC (Staph. epi. 126) | MIC (Staph. epi. 87; 18 h) | MIC (Strep. faec. 6) | MIC (Strep. pneum. 12) | MIC (Strep. pyog. 203) | ED50 [1] | MIC (Bac. sub. 1) | MIC (E. coli 470; [2]) | MIC (Staph. epi. 87; Staph. epi. 87, BHI agar, 18 hours at 37° C.)
CCC1OC(=O)CC(O)C(C)C(OC2OC(C)C(O)C(N(C)C)C2O)C(CC=O)CC(C)C(=O)C=CC(C)=CC1CO [(a), 5-(3,6-dideoxy-3-dimethylamino-beta-D-glucopyrnosyloxy)-6-formylmethyl-3-hydroxy-14-hydroxymethyl-4,8,12-trimethyl-9-oxo-10,12-heptadecadien-15-olide, reference compound] | 3.12 µg/mL (≈ 5.22 µM) | 6.25 µg/mL (≈ 10.5 µM) | 1.56 µg/mL (≈ 2.61 µM) | 1.56 µg/mL (≈ 2.61 µM) | 0.78 µg/mL (≈ 1.3 µM) | 0.78 µg/mL (≈ 1.3 µM) | 1.56 µg/mL (≈ 2.61 µM) | 0.78 µg/mL (≈ 1.3 µM) | 3.12 µg/mL (≈ 5.22 µM) | 0.78 µg/mL (≈ 1.3 µM) | 0.1 µg/mL (≈ 0.167 µM) | 0.39 µg/mL (≈ 0.652 µM) | 3.12 mg/kg |  |  | 
CCC1OC(=O)CC(O)C(C)C(OC2OC(C)C(O)C(N(C)C)C2O)C(CC=O)CC(C)C(=O)C=CC(C)=CC1COS(=O)(=O)c1ccc(C)cc1 (stereo not shown) [(b)] |  | 1.56 µg/mL (≈ 2.07 µM) | 3.12 µg/mL (≈ 4.15 µM) | 0.78 µg/mL (≈ 1.04 µM) | 0.78 µg/mL (≈ 1.04 µM) | 0.78 µg/mL (≈ 1.04 µM) | 1.56 µg/mL (≈ 2.07 µM) | 1.56 µg/mL (≈ 2.07 µM) |  | 0.39 µg/mL (≈ 0.519 µM) |  | 0.2 µg/mL (≈ 0.266 µM) | 19 mg/kg | 0.78 µg/mL (≈ 1.04 µM) |  | 
CCC1OC(=O)CC(O)C(C)C(OC2OC(C)C(O)C(N(C)C)C2O)C(CC=NN(C)C)CC(C)C(=O)C=CC(C)=CC1COS(=O)(=O)c1ccc(C)cc1 (stereo not shown) [(c)] |  | 0.78 µg/mL (≈ 0.982 µM) | 3.12 µg/mL (≈ 3.93 µM) | 0.2 µg/mL (≈ 0.252 µM) | 0.2 µg/mL (≈ 0.252 µM) | 0.1 µg/mL (≈ 0.126 µM) | 0.1 µg/mL (≈ 0.126 µM) | 1.56 µg/mL (≈ 1.96 µM) |  | 0.1 µg/mL (≈ 0.126 µM) |  | 0.05 µg/mL (≈ 0.063 µM) | 50 mg/kg | 0.2 µg/mL (≈ 0.252 µM) |  | 
CCC1OC(=O)CC(O)C(C)C(OC2OC(C)C(O)C(N(C)C)C2O)C(CC=O)CC(C)C(=O)C=CC(C)=CC1CI (stereo not shown) [(d)] |  | 0.78 µg/mL (≈ 1.1 µM) |  | 1.56 µg/mL (≈ 2.2 µM) | 0.39 µg/mL (≈ 0.551 µM) | 0.39 µg/mL (≈ 0.551 µM) | 0.78 µg/mL (≈ 1.1 µM) | 6.25 µg/mL (≈ 8.83 µM) |  | 3.12 µg/mL (≈ 4.41 µM) |  | 0.1 µg/mL (≈ 0.141 µM) |  | 0.78 µg/mL (≈ 1.1 µM) |  | 
CCC1OC(=O)CC(O)C(C)C(OC2OC(C)C(O)C(N(C)C)C2O)C(CC=NN(C)C)CC(C)C(=O)C=CC(C)=CC1CI (stereo not shown) [(e)] |  | 0.39 µg/mL (≈ 0.52 µM) | 1.56 µg/mL (≈ 2.08 µM) | 0.2 µg/mL (≈ 0.267 µM) | 0.2 µg/mL (≈ 0.267 µM) | 0.2 µg/mL (≈ 0.267 µM) | 0.2 µg/mL (≈ 0.267 µM) | 0.78 µg/mL (≈ 1.04 µM) |  | 0.39 µg/mL (≈ 0.52 µM) |  | 0.1 µg/mL (≈ 0.133 µM) | > 50 mg/kg | 0.1 µg/mL (≈ 0.133 µM) |  | 
CCC1OC(=O)CC(OC(C)=O)C(C)C(OC2OC(C)C(O)C(N(C)C)C2O)C(CC=O)CC(C)C(=O)C=CC(C)=CC1CN(C)C (stereo not shown) [(f)] |  | 3.12 µg/mL (≈ 4.68 µM) | 6.25 µg/mL (≈ 9.37 µM) | 3.12 µg/mL (≈ 4.68 µM) | 3.12 µg/mL (≈ 4.68 µM) | 3.12 µg/mL (≈ 4.68 µM) | 1.56 µg/mL (≈ 2.34 µM) | 1.56 µg/mL (≈ 2.34 µM) |  | 6.25 µg/mL (≈ 9.37 µM) |  | 0.39 µg/mL (≈ 0.585 µM) |  | 0.78 µg/mL (≈ 1.17 µM) |  | 
CCC1OC(=O)CC(O)C(C)C(OC2OC(C)C(O)C(N(C)C)C2O)C(CC=O)CC(C)C(=O)C=CC(C)=CC1CCl (stereo not shown) [(g)] |  | 1.56 µg/mL (≈ 2.53 µM) | 1.56 µg/mL (≈ 2.53 µM) | 0.39 µg/mL (≈ 0.633 µM) | 0.78 µg/mL (≈ 1.27 µM) | 0.78 µg/mL (≈ 1.27 µM) | 0.2 µg/mL (≈ 0.325 µM) | 0.78 µg/mL (≈ 1.27 µM) |  | 0.78 µg/mL (≈ 1.27 µM) | 0.02 µg/mL (≈ 0.0325 µM) | 0.39 µg/mL (≈ 0.633 µM) | 13 mg/kg | 0.1 µg/mL (≈ 0.162 µM) | 0.78 µg/mL (≈ 1.27 µM) | 25 µg/mL (≈ 40.6 µM)
CCC1OC(=O)CC(O)C(C)C(OC2OC(C)C(O)C(N(C)C)C2O)C(CC=O)CC(C)C(=O)C=CC(C)=CC1CN(C)C (stereo not shown) [(h)] |  | 12.5 µg/mL (≈ 20 µM) | 1.56 µg/mL (≈ 2.5 µM) | 1.56 µg/mL (≈ 2.5 µM) | 1.56 µg/mL (≈ 2.5 µM) | 0.78 µg/mL (≈ 1.25 µM) | 0.78 µg/mL (≈ 1.25 µM) | 3.12 µg/mL (≈ 4.99 µM) |  | 3.12 µg/mL (≈ 4.99 µM) | 0.39 µg/mL (≈ 0.624 µM) | 0.2 µg/mL (≈ 0.32 µM) | 2.4 mg/kg |  | 1.56 µg/mL (≈ 2.5 µM) | 
